In patent US20230365546A1, “5-SUBSTITUTED INDOLE 3-AMIDE DERIVATIVES, PREPARATION METHOD AND USE THEREOF” (ORIGIANT PHARMACEUTICAL CO., LTD, priority 2020, published 2023):

Experiments:
Test in all cases: Kinase Profiler 10 μM panel
NEK4(h) = NEK4(h) (Homo sapiens (Human), UniProt P51957)
Procedure: (§1) In vitro kinase assays were conducted using Kinase Profiler services provided by Eurofins. The experimental method was as follows: the small molecule compound to be tested (0.001-10 μM), the protein kinase to be tested were incubated with a buffer containing substrate, 10 mM magnesium acetate, and [γ-^33P-ATP], the reaction was started by adding Mg\TPmix, after incubation for a period of time at room temperature, a 3% phosphate solution was added to the buffer to stop the reaction. Subsequently, 10 μL of the reaction mixture was quantitatively pipetted onto P30 filter paper, which was washed three times with 75 mM phosphate solution and then once with methanol. The P30 filter paper was air-dried and scintillation fluid was added for scintillation counting.

Met(Y1248H)(h) = Met(Y1248H)(h) (Homo sapiens (Human), UniProt P08581, Y1230H)
Procedure: as §1

STK32A(h) = STK32A(h) (Homo sapiens (Human), UniProt Q8WU08)
Procedure: as §1

TGFBR2(h) = TGFBR2(h) (Homo sapiens (Human), UniProt P37173)
Procedure: as §1

MEK1(h) = MEK1(h) (Homo sapiens (Human), UniProt Q02750)
Procedure: as §1

JNK1α1(h) = JNK1α1(h) (Homo sapiens (Human), UniProt P45983)
Procedure: as §1

PKCβII(h) = PKCβII(h) (Homo sapiens (Human), UniProt P05771)
Procedure: as §1

PKCϵ(h) = PKCϵ(h) (Homo sapiens (Human), UniProt Q02156)
Procedure: as §1

TGFBR1(h) = TGFBR1(h) (Homo sapiens (Human), UniProt P36897)
Procedure: as §1

PAK4(h) = PAK4(h) (Homo sapiens (Human), UniProt O96013)
Procedure: as §1

TrkA(h) = TrkA(h) (Homo sapiens (Human), UniProt P04629)
Procedure: as §1

ZAP-70(h) = ZAP-70(h) (Homo sapiens (Human), UniProt P43403)
Procedure: as §1

CLK1(h) = CLK1(h) (Homo sapiens (Human), UniProt P49759)
Procedure: as §1

CaMKIV(h) = CaMKIV(h) (Homo sapiens (Human), UniProt Q16566)
Procedure: as §1

MINK(h) = MINK(h) (Homo sapiens (Human), UniProt Q8N4C8)
Procedure: as §1

PDGFRα(D842V)(h) = PDGFRα(D842V)(h) (Homo sapiens (Human), UniProt P16234, D842V)
Procedure: as §1

Hck(h) = Hck(h) (Homo sapiens (Human), UniProt P08631)
Procedure: as §1

EphA8(h) = EphA8(h) (Homo sapiens (Human), UniProt P29322)
Procedure: as §1

TAK1(h) = TAK1(h) (Homo sapiens (Human), UniProt O43318)
Procedure: as §1

LIMK1(h) = LIMK1(h) (Homo sapiens (Human), UniProt P53667)
Procedure: as §1

MKK4(m) = MKK4(m) (Mus musculus (Mouse), UniProt P47809)
Procedure: as §1

CaMKIδ(h) = CaMKIδ(h) (Homo sapiens (Human), UniProt Q8IU85)
Procedure: as §1

NDR2(h) = NDR2(h) (Homo sapiens (Human), UniProt Q9Y2H1)
Procedure: as §1

Syk(h) = Syk(h) (Homo sapiens (Human), UniProt P43405)
Procedure: as §1

BTK(h) = BTK(h) (Homo sapiens (Human), UniProt Q06187)
Procedure: as §1

TTBK1(h) = TTBK1(h) (Homo sapiens (Human), UniProt Q5TCY1)
Procedure: as §1

CaMKIγ(h) = CaMKIγ(h) (Homo sapiens (Human), UniProt Q96NX5)
Procedure: as §1

PTK5(h) = PTK5(h) (Homo sapiens (Human), UniProt P42685)
Procedure: as §1

MSSK1(h) = MSSK1(h) (Homo sapiens (Human), UniProt Q9UPE1)
Procedure: as §1

Arg(h) = Arg(h) (Homo sapiens (Human), UniProt P42684)
Procedure: as §1

CDK1/cyclinB(h) = CDK1/cyclinB(h) (Homo sapiens (Human), UniProt P06493)
Procedure: as §1

HIPK2(h) = HIPK2(h) (Homo sapiens (Human), UniProt Q9H2X6)
Procedure: as §1

JNK2α2(h) = JNK2α2(h) (Homo sapiens (Human), UniProt P45984)
Procedure: as §1

Aurora-C(h) = Aurora-C(h) (Homo sapiens (Human), UniProt Q9UQB9)
Aurora-C(h), sequence (Q9UQB9 whole entry): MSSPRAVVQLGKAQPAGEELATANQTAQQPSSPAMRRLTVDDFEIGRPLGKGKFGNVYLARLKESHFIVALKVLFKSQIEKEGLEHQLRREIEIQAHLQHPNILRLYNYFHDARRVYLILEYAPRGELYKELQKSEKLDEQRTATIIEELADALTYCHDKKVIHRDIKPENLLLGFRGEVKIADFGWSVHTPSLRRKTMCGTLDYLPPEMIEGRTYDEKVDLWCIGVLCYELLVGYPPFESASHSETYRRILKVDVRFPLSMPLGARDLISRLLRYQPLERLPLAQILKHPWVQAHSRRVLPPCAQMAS
Procedure: as §1

TAK1(h), sequence (O43318 1-303): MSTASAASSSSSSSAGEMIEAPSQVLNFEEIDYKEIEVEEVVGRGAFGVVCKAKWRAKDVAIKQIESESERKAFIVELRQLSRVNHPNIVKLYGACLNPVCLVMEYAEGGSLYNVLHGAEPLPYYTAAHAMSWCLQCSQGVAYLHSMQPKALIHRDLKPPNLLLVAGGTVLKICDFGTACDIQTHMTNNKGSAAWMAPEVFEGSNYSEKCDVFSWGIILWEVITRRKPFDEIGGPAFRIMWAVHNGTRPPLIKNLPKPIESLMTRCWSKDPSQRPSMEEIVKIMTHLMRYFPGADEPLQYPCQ
CaMKIδ(h), sequence (Q8IU85 whole entry): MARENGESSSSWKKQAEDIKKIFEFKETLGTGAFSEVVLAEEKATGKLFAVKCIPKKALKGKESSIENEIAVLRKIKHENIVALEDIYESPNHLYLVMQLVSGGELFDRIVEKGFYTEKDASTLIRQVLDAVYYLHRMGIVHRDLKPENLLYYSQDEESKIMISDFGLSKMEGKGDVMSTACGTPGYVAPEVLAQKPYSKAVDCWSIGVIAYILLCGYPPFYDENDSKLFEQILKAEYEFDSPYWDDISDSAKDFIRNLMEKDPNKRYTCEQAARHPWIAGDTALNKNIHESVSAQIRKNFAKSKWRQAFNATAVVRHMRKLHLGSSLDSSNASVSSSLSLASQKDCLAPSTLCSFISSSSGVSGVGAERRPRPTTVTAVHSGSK
ZAP-70(h), sequence (P43403 whole entry): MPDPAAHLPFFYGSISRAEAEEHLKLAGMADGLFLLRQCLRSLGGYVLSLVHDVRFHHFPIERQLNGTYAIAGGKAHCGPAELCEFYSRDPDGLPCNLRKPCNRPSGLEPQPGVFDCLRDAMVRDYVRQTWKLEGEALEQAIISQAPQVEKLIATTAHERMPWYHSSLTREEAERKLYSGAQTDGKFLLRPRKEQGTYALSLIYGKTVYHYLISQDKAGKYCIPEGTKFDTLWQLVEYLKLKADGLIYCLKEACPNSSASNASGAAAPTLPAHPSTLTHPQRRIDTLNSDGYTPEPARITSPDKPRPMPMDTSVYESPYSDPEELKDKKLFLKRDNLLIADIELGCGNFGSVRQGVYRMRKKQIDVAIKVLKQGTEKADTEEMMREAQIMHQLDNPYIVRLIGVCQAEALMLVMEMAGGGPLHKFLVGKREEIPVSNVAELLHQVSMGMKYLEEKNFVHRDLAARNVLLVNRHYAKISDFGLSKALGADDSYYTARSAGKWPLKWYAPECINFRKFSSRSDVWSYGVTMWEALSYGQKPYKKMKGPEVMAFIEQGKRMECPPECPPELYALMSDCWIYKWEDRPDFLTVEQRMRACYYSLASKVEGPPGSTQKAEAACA
JNK2α2(h), sequence (P45984 whole entry): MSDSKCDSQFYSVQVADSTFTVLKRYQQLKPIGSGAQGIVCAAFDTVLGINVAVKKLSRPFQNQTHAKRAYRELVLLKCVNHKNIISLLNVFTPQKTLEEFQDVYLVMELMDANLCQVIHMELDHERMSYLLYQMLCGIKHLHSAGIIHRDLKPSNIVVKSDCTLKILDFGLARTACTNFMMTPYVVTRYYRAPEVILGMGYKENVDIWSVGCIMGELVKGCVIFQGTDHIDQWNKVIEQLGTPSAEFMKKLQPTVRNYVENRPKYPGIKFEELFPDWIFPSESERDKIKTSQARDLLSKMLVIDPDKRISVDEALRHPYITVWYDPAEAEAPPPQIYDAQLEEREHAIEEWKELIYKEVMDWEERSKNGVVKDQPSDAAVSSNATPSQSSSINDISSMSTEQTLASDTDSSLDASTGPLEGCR
MEK1(h), sequence (Q02750 whole entry): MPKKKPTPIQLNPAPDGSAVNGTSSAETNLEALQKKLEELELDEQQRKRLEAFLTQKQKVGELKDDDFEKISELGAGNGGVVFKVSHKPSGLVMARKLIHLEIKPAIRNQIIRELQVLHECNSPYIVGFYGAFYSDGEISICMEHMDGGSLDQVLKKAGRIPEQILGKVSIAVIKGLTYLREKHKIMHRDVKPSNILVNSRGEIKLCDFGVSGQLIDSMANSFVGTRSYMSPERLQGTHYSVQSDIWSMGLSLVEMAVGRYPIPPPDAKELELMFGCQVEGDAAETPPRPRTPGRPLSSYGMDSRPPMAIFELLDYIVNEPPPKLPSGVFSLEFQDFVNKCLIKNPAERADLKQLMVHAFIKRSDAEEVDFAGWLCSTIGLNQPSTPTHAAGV
LIMK1(h), sequence (P53667 whole entry): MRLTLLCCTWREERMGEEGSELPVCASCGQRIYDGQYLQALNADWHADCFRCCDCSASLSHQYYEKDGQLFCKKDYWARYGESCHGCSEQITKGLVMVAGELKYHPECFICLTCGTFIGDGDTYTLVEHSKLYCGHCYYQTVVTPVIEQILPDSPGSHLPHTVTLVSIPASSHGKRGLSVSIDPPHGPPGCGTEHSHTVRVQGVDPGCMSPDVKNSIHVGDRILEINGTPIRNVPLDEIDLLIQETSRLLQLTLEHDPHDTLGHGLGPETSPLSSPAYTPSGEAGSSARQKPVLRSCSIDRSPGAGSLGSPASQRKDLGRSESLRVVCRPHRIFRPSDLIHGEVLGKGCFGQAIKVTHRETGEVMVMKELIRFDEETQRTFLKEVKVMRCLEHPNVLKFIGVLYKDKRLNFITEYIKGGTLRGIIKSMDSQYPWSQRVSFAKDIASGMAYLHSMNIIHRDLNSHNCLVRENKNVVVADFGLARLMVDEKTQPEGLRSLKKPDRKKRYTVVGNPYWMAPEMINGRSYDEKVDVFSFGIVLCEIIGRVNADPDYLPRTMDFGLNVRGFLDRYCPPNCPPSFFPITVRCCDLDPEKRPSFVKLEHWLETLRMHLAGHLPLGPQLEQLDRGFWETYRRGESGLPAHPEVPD
Met(Y1248H)(h), sequence (P08581 956-1390 Y1230H limits assumed): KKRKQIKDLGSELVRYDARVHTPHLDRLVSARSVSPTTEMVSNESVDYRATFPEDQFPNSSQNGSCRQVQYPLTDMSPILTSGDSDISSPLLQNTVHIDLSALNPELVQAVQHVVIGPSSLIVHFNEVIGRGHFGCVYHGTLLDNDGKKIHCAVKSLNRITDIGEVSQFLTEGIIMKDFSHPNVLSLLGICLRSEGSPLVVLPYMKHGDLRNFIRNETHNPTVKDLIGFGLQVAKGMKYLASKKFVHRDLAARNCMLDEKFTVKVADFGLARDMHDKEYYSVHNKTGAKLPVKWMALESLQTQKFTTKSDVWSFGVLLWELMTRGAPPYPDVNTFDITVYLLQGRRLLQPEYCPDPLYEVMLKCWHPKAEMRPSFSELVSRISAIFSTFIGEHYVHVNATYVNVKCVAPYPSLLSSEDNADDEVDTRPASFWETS
Hck(h), sequence (P08631 whole entry): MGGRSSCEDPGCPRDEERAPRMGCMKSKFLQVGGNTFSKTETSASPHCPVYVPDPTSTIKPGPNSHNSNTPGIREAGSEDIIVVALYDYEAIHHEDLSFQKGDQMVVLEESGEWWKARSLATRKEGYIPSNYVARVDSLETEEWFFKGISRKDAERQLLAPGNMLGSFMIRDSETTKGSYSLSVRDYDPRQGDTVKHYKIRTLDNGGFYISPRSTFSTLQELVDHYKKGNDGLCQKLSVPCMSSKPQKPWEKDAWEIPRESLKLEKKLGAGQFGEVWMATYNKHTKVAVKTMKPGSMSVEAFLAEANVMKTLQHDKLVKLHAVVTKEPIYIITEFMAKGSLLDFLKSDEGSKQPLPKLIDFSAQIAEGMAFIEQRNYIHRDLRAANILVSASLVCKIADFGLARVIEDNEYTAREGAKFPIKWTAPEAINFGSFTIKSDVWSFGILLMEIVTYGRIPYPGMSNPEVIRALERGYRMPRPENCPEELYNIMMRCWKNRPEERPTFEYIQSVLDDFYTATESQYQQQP
JNK1α1(h), sequence (P45983 other isoform, or with tags, fused parts or gaps): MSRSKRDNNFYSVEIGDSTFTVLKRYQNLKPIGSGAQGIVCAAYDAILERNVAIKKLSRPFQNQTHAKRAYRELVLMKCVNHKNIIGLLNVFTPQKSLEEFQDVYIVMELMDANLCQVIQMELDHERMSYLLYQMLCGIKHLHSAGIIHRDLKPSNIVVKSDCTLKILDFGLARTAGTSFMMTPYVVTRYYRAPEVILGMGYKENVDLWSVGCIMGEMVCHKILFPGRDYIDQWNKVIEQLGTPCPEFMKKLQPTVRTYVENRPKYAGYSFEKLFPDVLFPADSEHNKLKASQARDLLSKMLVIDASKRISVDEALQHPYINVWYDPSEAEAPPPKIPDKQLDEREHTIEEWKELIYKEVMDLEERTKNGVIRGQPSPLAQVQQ
CLK1(h), sequence (P49759 whole entry): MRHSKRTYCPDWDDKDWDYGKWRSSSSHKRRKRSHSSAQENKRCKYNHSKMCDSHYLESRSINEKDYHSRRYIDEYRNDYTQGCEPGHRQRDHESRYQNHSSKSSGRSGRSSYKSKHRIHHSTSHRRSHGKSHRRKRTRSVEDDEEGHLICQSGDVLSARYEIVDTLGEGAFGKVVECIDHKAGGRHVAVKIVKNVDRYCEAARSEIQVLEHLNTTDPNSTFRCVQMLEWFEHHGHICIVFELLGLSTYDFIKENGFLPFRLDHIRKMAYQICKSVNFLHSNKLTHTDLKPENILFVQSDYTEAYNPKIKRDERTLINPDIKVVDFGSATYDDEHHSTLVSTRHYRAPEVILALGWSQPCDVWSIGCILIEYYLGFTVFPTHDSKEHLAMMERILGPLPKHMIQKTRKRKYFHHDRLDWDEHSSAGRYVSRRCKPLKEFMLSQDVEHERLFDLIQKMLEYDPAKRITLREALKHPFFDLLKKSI

Q: How did the Inhibition ratio (NEK4(h)) turn out when `C[C@H](NC(=O)c1c[nH]c2ccc(-c3ccc4nc(NC(=O)C5CC5)sc4c3)cc12)c1cccc(F)c1` [Compound 34, (S)-5-(2-(cyclopropanecarboxamido)benzo[d]thiazol-6-yl)-N-(1-(3-fluorophenyl)ethyl)-1H-indole-3-carboxamide] was run?
A: 30%

Q: And the Inhibition ratio (Met(Y1248H)(h))?
A: 107%

Q: And the Inhibition ratio (STK32A(h))?
A: 16%

Q: What about the Inhibition ratio (TGFBR2(h)) of the same compound?
A: 25%

Q: And the Inhibition ratio (MEK1(h))?
A: 12%

Q: What about the Inhibition ratio (JNK1α1(h)) of the same compound?
A: 15%

Q: What about the Inhibition ratio (PKCβII(h)) of the same compound?
A: 7%

Q: And the Inhibition ratio (PKCϵ(h))?
A: −8%

Q: And the Inhibition ratio (TGFBR1(h))?
A: 7%

Q: And the Inhibition ratio (PAK4(h))?
A: 10%

Q: And the Inhibition ratio (TrkA(h))?
A: 102%

Q: What about the Inhibition ratio (ZAP-70(h)) of the same compound?
A: 8%

Q: What about the Inhibition ratio (CLK1(h)) of the same compound?
A: 80%

Q: What about the Inhibition ratio (CaMKIV(h)) of the same compound?
A: 20%

Q: What about the Inhibition ratio (MINK(h)) of the same compound?
A: 93%

Q: And the Inhibition ratio (PDGFRα(D842V)(h))?
A: 56%

Q: What about the Inhibition ratio (Hck(h)) of the same compound?
A: 37%

Q: What about the Inhibition ratio (EphA8(h)) of the same compound?
A: 85%

Q: What about the Inhibition ratio (TAK1(h)) of the same compound?
A: 45%

Q: And the Inhibition ratio (LIMK1(h))?
A: 14%

Q: What about the Inhibition ratio (MKK4(m)) of the same compound?
A: 9%

Q: What about the Inhibition ratio (CaMKIδ(h)) of the same compound?
A: 22%

Q: What about the Inhibition ratio (NDR2(h)) of the same compound?
A: 23%

Q: And the Inhibition ratio (Syk(h))?
A: 98%

Q: What about the Inhibition ratio (BTK(h)) of the same compound?
A: 15%

Q: What about the Inhibition ratio (TTBK1(h)) of the same compound?
A: 4%

Q: What about the Inhibition ratio (CaMKIγ(h)) of the same compound?
A: 7%

Q: And the Inhibition ratio (PTK5(h))?
A: 51%

Q: And the Inhibition ratio (MSSK1(h))?
A: 24%

Q: And the Inhibition ratio (Arg(h))?
A: 89%

Q: What about the Inhibition ratio (CDK1/cyclinB(h)) of the same compound?
A: 13%

Q: And the Inhibition ratio (HIPK2(h))?
A: 66%

Q: And the Inhibition ratio (JNK2α2(h))?
A: 25%

Q: And the Inhibition ratio (Aurora-C(h))?
A: 26%

Q: Which results are given for `C[C@H](NC(=O)c1cn(C)c2ccc(-c3ccn4nc(NC(=O)C5CC5)nc4c3)cc12)c1cccc(F)c1` [Compound 94, (S)-5-(2-(cyclopropanecarboxamido)-[1,2,4]triazolo[1,5-a]pyridin-7-yl)-N-(1-(3-fluorophenyl)ethyl)-1-methyl-1H-indole-3-carboxamide]?
A: Inhibition ratio/% (NEK4(h)): 27%; Inhibition ratio/% (Met(Y1248H)(h)): −11%; Inhibition ratio/% (STK32A(h)): 55%; Inhibition ratio/% (TGFBR2(h)): −6%; Inhibition ratio/% (MEK1(h)): 43%; Inhibition ratio/% (JNK1α1(h)): 53%; Inhibition ratio/% (PKCβII(h)): 10%; Inhibition ratio/% (PKCϵ(h)): 35%; Inhibition ratio/% (TGFBR1(h)): −3%; Inhibition ratio/% (PAK4(h)): 5%; Inhibition ratio/% (TrkA(h)): −12%; Inhibition ratio/% (ZAP-70(h)): 1%; Inhibition ratio/% (CLK1(h)): 80%; Inhibition ratio/% (CaMKIV(h)): 21%; Inhibition ratio/% (MINK(h)): 53%; Inhibition ratio/% (PDGFRα(D842V)(h)): 37%; Inhibition ratio/% (Hck(h)): −8%; Inhibition ratio/% (EphA8(h)): 4%; Inhibition ratio/% (TAK1(h)): 9%; Inhibition ratio/% (LIMK1(h)): −1%; Inhibition ratio/% (MKK4(m)): 27%; Inhibition ratio/% (CaMKIδ(h)): 26%; Inhibition ratio/% (NDR2(h)): 46%; Inhibition ratio/% (Syk(h)): 69%; Inhibition ratio/% (BTK(h)): 65%; Inhibition ratio/% (TTBK1(h)): 13%; Inhibition ratio/% (CaMKIγ(h)): −13%; Inhibition ratio/% (PTK5(h)): 48%; Inhibition ratio/% (MSSK1(h)): −12%; Inhibition ratio/% (Arg(h)): 42%; Inhibition ratio/% (CDK1/cyclinB(h)): 78%; Inhibition ratio/% (HIPK2(h)): 36%; Inhibition ratio/% (JNK2α2(h)): 40%; Inhibition ratio/% (Aurora-C(h)): 15%
